Literature values as cited in patent US4540572A, “Gel-like ointment containing indometacin” (Mepha AG, priority 1983, dated 1985).

Tested on: human skin
Conditions: from the conventional ointment bases

## COc1ccc2c(c1)c(CC(=O)O)c(C)n2C(=O)c1ccc(Cl)cc1 [indometacin]
  absorption through the human skin: lack of its absorption
